Reference: the NIST ThermoML archive (doi:10.1016/j.fluid.2010.10.003)

Assays:
[1] = refractive index (Na D-line) (dimensionless); settings: 298.15 K; 101.33 kPa; Liquid; Standard Abbe refractometry
[2] = 298.15 K, 101.33 kPa, Liquid; for viscosity: Capillary tube (Ostwald / Ubbelohde) method; for mass density: Vibrating tube method
[3] = xn = mol fraction of the nth substance listed; settings: 298.15 K, 101 kPa, Liquid; for viscosity: Capillary tube (Ostwald / Ubbelohde) method; for mass density: Vibrating tube method
[4] = refractive index (Na D-line) (dimensionless); xn = mol fraction of the nth substance listed; settings: 298.15 K, 101 kPa, Liquid, Standard Abbe refractometry

CCCC[n+]1ccn(C)c1.O=S(=O)([N-]S(=O)(=O)C(F)(F)F)C(F)(F)F
Settings	mass density [kg/m3]	refractive index	viscosity [mPa·s]
[1]	–	1.42692	–
[2]	1436.58	–	50.68

CCCC[n+]1ccn(C)c1.O=S(=O)([N-]S(=O)(=O)C(F)(F)F)C(F)(F)F + CC(C)O
Settings	mass density, [3] [kg/m3]	refractive index, [4]	viscosity, [3] [mPa·s]
x2 = 0.0515	1427.23	1.42621	45.44
x2 = 0.0962	1418.52	1.42549	41.2
x2 = 0.1921	1397.79	1.42385	33.45
x2 = 0.3213	1363.98	1.42124	24.5
x2 = 0.3896	1342.5	1.41962	20.46
x2 = 0.4869	1306.05	1.41685	15.84
x2 = 0.5173	1292.91	1.41578	14.67
x2 = 0.6074	1247.91	1.4124	11.22
x2 = 0.6943	1192.86	1.40818	8.545
x2 = 0.7996	1102.82	1.40129	5.859
x2 = 0.8995	978.52	1.39152	3.898

CC(=O)OC(C)C [1-methylethyl ethanoate]
Settings	mass density [kg/m3]	refractive index	viscosity [mPa·s]
[1]	–	1.3748	–
[2]	866.21	–	0.481

CC(=O)OC(C)C [1-methylethyl ethanoate] + CCCC[n+]1ccn(C)c1.O=S(=O)([N-]S(=O)(=O)C(F)(F)F)C(F)(F)F
Settings	mass density, [3] [kg/m3]	refractive index, [4]	viscosity, [3] [mPa·s]
x1 = 0.0514	1425.08	1.42609	44.31
x1 = 0.1096	1411.17	1.42501	38.56
x1 = 0.1554	1399.42	1.42412	33.87
x1 = 0.1972	1388.1	1.42326	30.34
x1 = 0.2961	1358.2	1.42092	22.58
x1 = 0.4241	1312.34	1.41733	14.46
x1 = 0.5168	1272.49	1.4142	10.07
x1 = 0.5998	1230.54	1.4107	6.918
x1 = 0.7017	1168.62	1.40538	4.356
x1 = 0.7981	1095.44	1.39882	2.363
x1 = 0.8918	1005.35	1.39016	1.41

CC(C)O [propan-2-ol]
Settings	mass density [kg/m3]	refractive index	viscosity [mPa·s]
[1]	–	1.37502	–
[2]	780.88	–	2.073
